According to PMC10786919, “Design-rules for stapled peptides with in vivo activity and their application to Mdm2/X antagonists” (Nature Communications, 2024):
pEC50, pKd: −log10 of the molar value. In brackets after ≈: the same amount, converted by molar mass. Read-outs that look alike come from different tables or passages of the source. Positions of bridges follow the written chain, without caps; N, C: chain ends. Non-standard residues stand in square brackets, D forms with d. Residues, ends and D or L forms follow the SMILES beside them. Lys(N3) = [N-]=[N+]=NCCCC[C@H](N)C(=O)O; hArg = N=C(N)NCCCC[C@H](N)C(=O)O; R8 = C=CCCCCCC[C@@](C)(N)C(=O)O; Cba = N[C@@H](CC1CCC1)C(=O)O; S5 = C=CCCC[C@](C)(N)C(=O)O; βAla = NCCC(=O)O

Assays:
[1] = Experimental LogD (partition coefficient); settings: for logD: not stated, Partition Coeff LogD
[2] = Solubility assay (kinetic solubility, PBS pH 7); assay type: physicochemical; settings: for solubility kinetic: pH 7, aqueous buffer, kinetic from dmso stock, read-out: Solubility
Outline: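 Std: 10 mM stock → 100 µM in ACN/MeOH/DMSO (10:80:10). Sol. [µM] = (sample peak area / std peak area) × std conc.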

[3] = Lactate dehydrogenase (LDH) release assay; assay type: cell-based
Outline: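 Membrane damage measured as lactate dehydrogenase release (CytoTox-ONE kit) from p53-responsive β-lactamase reporter HCT116 cells plated at 8000 per well. Final DMSO 0.5%; geometric mean reported from a minimum of three biological replicates.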

in vitro [4] = settings: Nanoclick permeability assay EC50
Outline: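 Azido-peptide permeability was read as loss of NanoBRET signal (donor 450 nm, acceptor 610 nm) after adding NanoBret618-azide at 10 μM final.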

Ca Ski cell line = settings: 72 h
Outline: (§1)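 Compound dilution series (10 points, 3-fold, 10 mM top stock in DMSO) tested on overnight-plated Ca Ski cells in RPMI1640/10% FBS and on blasticidin-selected p53RE-bla HCT-116 cells in McCoy's 5A; read-out was CellTiter-Glo 2.0 luminescence after room-temperature equilibration.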

[5] = test system: CellSensor p53RE-bla HCT-116 Cell Line; settings: 72 h
Outline: as §1

in vitro [6] = settings: human, HCT116 whole cell homogenates
EPSA = assay type: physicochemical; settings: EPSA
[7] = test system: p53 responsive β-lactamase reporter in HCT116 cells; test: cells; assay type: cell-based; settings: read-out: p53 reporter assay EC50
Outline: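 Read-out used the ToxBLAzer Dual Screen for β-lactamase driven by a stably integrated p53-responsive reporter. Assay: 8000 HCT116 cells per well at 0.5% final DMSO. Reported numbers are geometric means over a minimum of three biological replicates.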

[8] = test system: Jump-In T-REx CHO-K1 BLA cells; test: cells; assay type: cell-based; settings: for pEC50: read-out: TETCHO: Counterscreen EC50
human Mdm2 1–125 = target: T1, human Mdm2 1–125 (Homo sapiens, UniProt Q00987); test: Mdm2 binding by competitive fluorescence anisotropy assay (FP binding); settings: read-out: FP binding assay KD
T1 construct: GST (N); His6 (internal); TEV cleavage site (ENLYFQG) (internal); made in house; host or cells: BL21 (DE3) Rosetta T1R Escherichia coli
T1 sequence (Q00987 with tags, fused parts or gaps): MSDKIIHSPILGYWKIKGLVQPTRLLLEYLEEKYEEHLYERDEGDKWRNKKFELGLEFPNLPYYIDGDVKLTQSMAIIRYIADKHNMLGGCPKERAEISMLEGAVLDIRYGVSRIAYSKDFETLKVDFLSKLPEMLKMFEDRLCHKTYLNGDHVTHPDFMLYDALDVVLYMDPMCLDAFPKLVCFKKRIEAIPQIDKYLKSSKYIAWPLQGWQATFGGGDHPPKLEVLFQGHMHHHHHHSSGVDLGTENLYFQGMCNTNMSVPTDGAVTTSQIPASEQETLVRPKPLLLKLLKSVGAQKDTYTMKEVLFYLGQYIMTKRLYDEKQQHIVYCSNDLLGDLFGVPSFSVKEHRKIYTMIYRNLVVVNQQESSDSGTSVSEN

Row | Compound | logD [1] | solubility kinetic ([2]; pH 7, PBS) [µM] | pEC50 ([3]; LDH: Cytotoxicity assay EC50) | EPSA (physchem) [A^2] | cell entry EC50 (in vitro [4]) [µM] | Partition Coeff LogD [1] | Solubility ([2]; pH 7, PBS) | also measured
1 | CC(=O)N[C@@H](CCCCN=[N+]=[N-])C(=O)NCCC(=O)N[C@@H](CC(C)C)C(=O)N[C@H](C(=O)N[C@@H](Cc1ccccc1)C(=O)N[C@]1(C)CCCCCCC=CCCC[C@@](C)(C(=O)N[C@@H](CO)C(=O)N[C@@H](C)C(=O)N[C@@H](C)C(N)=O)NC(=O)[C@H](CC2CCC2)NC(=O)[C@H](CCC(N)=O)NC(=O)[C@H](C)NC(=O)[C@H](Cc2c[nH]c3ccccc23)NC(=O)[C@H](Cc2ccc(O)cc2)NC(=O)[C@H](CCCCNC(=N)N)NC1=O)[C@@H](C)O [MP-6898] (Ac-[Lys(N3)][βAla]LTF[R8][hArg]YWAQ[Cba][S5]SAA-NH2; staple 6-13) | 3.21 | 2 (≈ 4.02 µg/mL) | 4.91 | 181 | 2.12 | – | – | –
2 | CC(=O)N[C@@H](CCCCN=[N+]=[N-])C(=O)NCCC(=O)N[C@@H](CC(C)C)C(=O)N[C@H](C(=O)N[C@@H](Cc1ccccc1)C(=O)N[C@]1(C)CCCCCCC=CCCC[C@@](C)(C(=O)N[C@@H](C)C(=O)N[C@@H](C)C(=O)N[C@@H](C)C(=O)N[C@@H](C)C(=O)N[C@@H](C)C(=O)N[C@@H](C)C(N)=O)NC(=O)[C@H](CC2CCC2)NC(=O)[C@H](CCC(N)=O)NC(=O)[C@H](C)NC(=O)[C@H](Cc2c[nH]c3ccccc23)NC(=O)[C@H](Cc2ccc(O)cc2)NC(=O)[C@H](CCC(=O)O)NC1=O)[C@@H](C)O [MP-032] (Ac-[Lys(N3)][βAla]LTF[R8]EYWAQ[Cba][S5]AAAAAA-NH2; staple 6-13) | – | – | – | – | 0.708 | Poorly Behaved | Poorly Behaved | pEC50 (Ca Ski cell line): 4.58; pEC50 [5]: 6.02; Solubility [2]: P.B.; half-life at 1 μM (in vitro [6]): 30 min; pEC50 ([3]; LDH: Cytotoxicity assay: EC50): < 4.29; EPSA (EPSA): 194 A^2
3 | CC[C@H](C)[C@H](NC(=O)[C@H](CC(C)C)NC(=O)[C@@H]1CCCN1C(C)=O)C(=O)N[C@@H](Cc1ccc(O)cc1)C(=O)N[C@@H](CC(C)C)C(=O)N[C@@H](CCCNC(=N)N)C(=O)N[C@@H](CC(C)C)C(=O)N[C@@H](CC(C)C)C(=O)N[C@@H](CCCNC(=N)N)C(=O)NCC(=O)N[C@@H](CCC(N)=O)C(=O)N[C@@H](Cc1ccccc1)C(=O)N[C@@H](CCCCN=[N+]=[N-])C(=O)NCCC(=O)N[C@@H](CC(C)C)C(=O)N[C@H](C(=O)N[C@@H](Cc1ccccc1)C(=O)N[C@]1(C)CCCCCCC=CCCC[C@@](C)(C(=O)N[C@@H](CO)C(=O)N[C@@H](C)C(=O)N[C@@H](C)C(N)=O)NC(=O)[C@H](CC2CCC2)NC(=O)[C@H](CCC(N)=O)NC(=O)[C@H](C)NC(=O)[C@H](Cc2c[nH]c3ccccc23)NC(=O)[C@H](Cc2ccc(O)cc2)NC(=O)[C@H](CCC(=O)O)NC1=O)[C@@H](C)O [MP-880] | 3.54 | 2 (≈ 6.88 µg/mL) | < 4.30 | 245 | 0.569 | – | – | –
4 | CC(=O)N[C@@H](CCCCN=[N+]=[N-])C(=O)NCCC(=O)N[C@@H](CC(C)C)C(=O)N[C@H](C(=O)N[C@@H](Cc1ccccc1)C(=O)N[C@]1(C)CCCCCCC=CCCC[C@@](C)(C(=O)N[C@@H](CCCCNC(=N)N)C(=O)N[C@@H](C)C(=O)N[C@@H](C)C(N)=O)NC(=O)[C@H](CC2CCC2)NC(=O)[C@H](CCC(N)=O)NC(=O)[C@H](C)NC(=O)[C@H](Cc2c[nH]c3ccccc23)NC(=O)[C@H](Cc2ccc(O)cc2)NC(=O)[C@H](CCC(=O)O)NC1=O)[C@@H](C)O [MP-901] (Ac-[Lys(N3)][βAla]LTF[R8]EYWAQ[Cba][S5][hArg]AA-NH2; staple 6-13) | – | – | < 4.30 | 186 | 0.46 | Poorly Behaved | Poorly Behaved | –
5 | CC(=O)N[C@@H](CCCCN=[N+]=[N-])C(=O)N[C@H](C(=O)N[C@@H](CO)C(=O)N[C@@H](Cc1ccccc1)C(=O)N[C@]1(C)CCCCCCC=CCCC[C@@](C)(C(=O)N[C@@H](CO)C(=O)N[C@@H](C)C(=O)N[C@@H](C)C(N)=O)NC(=O)[C@H](CC2CCC2)NC(=O)[C@H](CCC(N)=O)NC(=O)[C@H](C)NC(=O)[C@H](Cc2c[nH]c3ccccc23)NC(=O)[C@H](Cc2ccc(O)cc2)NC(=O)[C@H](C)NC1=O)[C@@H](C)O [MP-703] (Ac-[Lys(N3)]TSF[R8]AYWAQ[Cba][S5]SAA-NH2; staple 5-12) | – | – | < 4.30 | 178 | – | Poorly Behaved | Poorly Behaved | pEC50 ([7]; 0% FBS 4Hr): 6.52; pEC50 ([7]; 0% FBS 16Hr): 6.06; TETCHO: Counterscreen % Effect ([8]; 0% FBS 4Hr): 32.8%; pEC50 ([8]; 0% FBS 4Hr): < 4.30
6 | CC(=O)N[C@@H](CCCCN=[N+]=[N-])C(=O)NCCC(=O)N[C@@H](CC(C)C)C(=O)N[C@H](C(=O)N[C@@H](Cc1ccccc1)C(=O)N[C@]1(C)CCCCCCC=CCCC[C@@](C)(C(=O)N[C@@H](CO)C(=O)N[C@@H](CCCCNC(=N)N)C(=O)N[C@@H](C)C(N)=O)NC(=O)[C@H](CC2CCC2)NC(=O)[C@H](CCC(N)=O)NC(=O)[C@H](C)NC(=O)[C@H](Cc2c[nH]c3ccccc23)NC(=O)[C@H](Cc2ccc(O)cc2)NC(=O)[C@H](CCC(=O)O)NC1=O)[C@@H](C)O [MP-881] (Ac-[Lys(N3)][βAla]LTF[R8]EYWAQ[Cba][S5]S[hArg]A-NH2; staple 6-13) | 2.9 | 2 (≈ 4.14 µg/mL) | < 4.30 | 183 | 1.92 | – | – | –
7 | CC(=O)N[C@@H](CO)C(=O)NCC(=O)N[C@@H](CO)C(=O)N[C@H](C(=O)N[C@@H](CO)C(=O)N[C@@H](Cc1ccccc1)C(=O)N[C@]1(C)CCCCCCC=CCCC[C@@](C)(C(N)=O)NC(=O)[C@H](CC(C)C)NC(=O)[C@H](CC(C)C)NC(=O)[C@H](C)NC(=O)[C@H](Cc2c[nH]c3ccccc23)NC(=O)[C@H](Cc2ccc(O)cc2)NC(=O)[C@H](CCC(=O)O)NC1=O)[C@@H](C)O [MP-654] | 2.3 | 23 (≈ 39 µg/mL) | < 4.30 | 217 | – | – | – | pEC50 ([7]; 0% FBS 4Hr): 4.99; pEC50 ([7]; 0% FBS 16Hr): 4.86; pKd (human Mdm2 1–125): 8.23; TETCHO: Counterscreen % Effect ([8]; 0% FBS 4Hr): 1.563%; pEC50 ([8]; 0% FBS 4Hr): < 4.30; TETCHO: Counterscreen % Effect ([8]; 0% FBS 16Hr): 3.969%; pEC50 ([8]; 0% FBS 16Hr): < 4.30
8 | CC(=O)N[C@@H](CCCCN=[N+]=[N-])C(=O)NCCC(=O)N[C@@H](CC(C)C)C(=O)N[C@H](C(=O)N[C@@H](Cc1ccccc1)C(=O)N[C@]1(C)CCCCCCC=CCCC[C@@](C)(C(=O)N[C@@H](CO)C(=O)N[C@@H](C)C(=O)N[C@@H](C)C(N)=O)NC(=O)[C@H](CC2CCC2)NC(=O)[C@H](CCC(N)=O)NC(=O)[C@H](CCCCNC(=N)N)NC(=O)[C@H](Cc2c[nH]c3ccccc23)NC(=O)[C@H](Cc2ccc(O)cc2)NC(=O)[C@H](CCC(=O)O)NC1=O)[C@@H](C)O [MP-899] (Ac-[Lys(N3)][βAla]LTF[R8]EYW[hArg]Q[Cba][S5]SAA-NH2; staple 6-13) | 2.76 | 2 (≈ 4.14 µg/mL) | < 4.30 | 200 | 0.189 | – | – | –
9 | CC(=O)N[C@@H](CCCCN=[N+]=[N-])C(=O)NCCC(=O)N[C@@H](CC(C)C)C(=O)N[C@H](C(=O)N[C@@H](Cc1ccccc1)C(=O)N[C@]1(C)CCCCCCC=CCCC[C@@](C)(C(=O)N[C@@H](CO)C(=O)N[C@@H](C)C(=O)N[C@@H](CCCCNC(=N)N)C(N)=O)NC(=O)[C@H](CC2CCC2)NC(=O)[C@H](CCC(N)=O)NC(=O)[C@H](C)NC(=O)[C@H](Cc2c[nH]c3ccccc23)NC(=O)[C@H](Cc2ccc(O)cc2)NC(=O)[C@H](CCC(=O)O)NC1=O)[C@@H](C)O [MP-902] (Ac-[Lys(N3)][βAla]LTF[R8]EYWAQ[Cba][S5]SA[hArg]-NH2; staple 6-13) | 2.54 | 6 (≈ 12.4 µg/mL) | < 4.30 | 191 | 2.65 | – | – | –
